Measured values taken from publication PMC10287566, “Signaling-specific inhibition of the CB1 receptor for cannabis use disorder: phase 1 and phase 2a randomized trials” (Nature Medicine, 2023).

System: mice
Assay: Anxiety-related behavior, elevated plus maze, repeated treatment
Format: in vivo
Conditions: mice, elevated plus maze, highest dose tested 15 mg/kg
Description: Anxiety-like behaviors were studied in the elevated plus maze (EPM), a rodent model used to evaluate the putative anxiogenic or anxiolytic effects of pharmacological compounds. Depression-related behaviors were studied using the sucrose preference test as a model of anhedonia, one of the cardinal symptoms of depression.
The EPM apparatus comprises four elevated arms arranged in a cross-like shape, with the two opposite arms enclosed by walls and the other two arms open. For all experiments, mice were placed in the center of the EPM and were free to explore the maze for 5 min after receiving the treatment. The time spent and the number of entries into the open and closed arms were measured by an automatic video tracking system (EthoVision XT version 12, Noldus Information Technology). A decrease in the percentage of visits and/or the time spent in open arms is considered an index of increased anxiety.
The EPM assessment was done on day 26, and the sucrose preference test was done on day 28.

COc1ccc(CO[C@H]2CC[C@@]3(C)C(=CC[C@H]4[C@@H]5CC[C@H](C(C)=O)[C@@]5(C)CC[C@@H]43)C2)cc1 [AEF0117, 3β-(4-methoxybenzyloxy)pregn-5-en-20-one]
Overall effect: increase in anxiety-related behaviors: No
